Laboratory results taken from publication PMC6225228, “Design, Synthesis and Evaluation of N-pyrazinylbenzamides as Potential Antimycobacterial Agents” (Molecules : A Journal of Synthetic Chemistry and Natural …, 2018).
Values after ≈ are worked out from the molar mass of the structure shown. Values joined by “and” are separate entries in the source; they are usually repeats but may differ in a detail not shown here. Equal entries are not always repeated. Where two headings read alike, the source gives them in different places.

Experiments:
Type in all cases: cell-based
[1] = system: Staphylococcus aureus CCM 4516/08; assay: Antibacterial microdilution broth, SA; settings: read-out: MIC SA
[2] = system: Staphylococcus aureus H 5996/08 methicillin resistant; assay: microbe, parasite or virus in culture; settings: for MIC: Staphylococcus aureus, MRSA, read-out: MIC MRSA
[3] = system: Staphylococcus epidermidis H 6966/08; assay: Antibacterial microdilution broth, SE; settings: read-out: MIC SE
[4] = system: Enterococcus sp. J 14365/08; assay: Antibacterial microdilution broth, EF; settings: read-out: MIC EF
[5] = system: Escherichia coli CCM 4517; assay: Antibacterial microdilution broth, EC; settings: read-out: MIC EC
[6] = system: Pseudomonas aeruginosa CCM 1961; assay: Antibacterial microdilution broth, PA; settings: read-out: MIC PA
[7] = system: Mycobacterium smegmatis CCM 4622 (ATCC 607); assay: Antimycobacterial microdilution, M. smegmatis; settings: Middlebrook 7H9 with OADC, resazurin
[8] = system: Candida albicans ATCC 44859; assay: Antifungal microdilution broth, CA; settings: Candida albicans, read-out: MIC CA
[9] = system: Candida tropicalis 156; assay: Antifungal microdilution broth, CT; settings: read-out: MIC CT
[10] = system: Candida krusei E28; assay: Antifungal microdilution broth, CK; settings: Pichia kudriavzevii, read-out: MIC CK
[11] = system: Candida glabrata 20/I; assay: Antifungal microdilution broth, CG; settings: Nakaseomyces glabratus, 20/I, read-out: MIC CG
[12] = system: Trichosporon asahii 1188; assay: Antifungal microdilution broth, TA; settings: read-out: MIC TA
[13] = system: Aspergillus fumigatus 231; assay: Antifungal microdilution broth, AF; settings: read-out: MIC AF
[14] = system: Lichtheimia corymbifera 272; assay: Antifungal microdilution broth, LC; settings: read-out: MIC LC
[15] = system: Trichophyton interdigitale 445; assay: Antifungal microdilution broth, TI; settings: read-out: MIC TI
[16] = Staphylococcus aureus, CCM4516, 24 h
[17] = Staphylococcus aureus, CCM4516, 48 h
[18] = Staphylococcus epidermidis, H6966/08, 24 h
[19] = Staphylococcus epidermidis, H6966/08, 48 h
[20] = Enterococcus, SP.J14365/08, 24 h
[21] = Enterococcus, SP.J14365/08, 48 h
[22] = Escherichia coli, CCM4517, 24 h
[23] = Escherichia coli, CCM4517, 48 h
[24] = Pseudomonas aeruginosa, CCM1961, 72 h
[25] = Pseudomonas aeruginosa, CCM1961, 120 h

Compound	MIC ([1]; 24 h)	MIC ([1]; 48 h)	MIC MRSA ([2]; 24 h)	MIC MRSA ([2]; 48 h)	MIC ([3]; 24 h)	MIC ([3]; 48 h)	MIC ([4]; 24 h)	MIC ([4]; 48 h)	MIC ([5]; 24 h)	MIC ([5]; 48 h)	MIC ([6]; 72 h)	MIC ([6]; 120 h)	MIC [1, 16]	MIC [1, 17]	MIC ([2]; 24 h)	MIC ([2]; 48 h)	MIC [3, 18]	MIC [3, 19]	MIC [4, 20]	MIC [4, 21]	also measured
NC[C@@H]1O[C@H](O[C@H]2[C@@H](O)[C@H](O[C@@H]3[C@@H](O)[C@H](N)C[C@H](N)[C@H]3O[C@H]3O[C@H](CN)[C@@H](O)[C@H](O)[C@H]3N)O[C@@H]2CO)[C@H](N)[C@@H](O)[C@@H]1O [Neom, neomycin, reference compound]	3.9 µM and 3.90 µM	3.9 µM and 3.90 µM	0.98 µM (≈ 0.602 µg/mL)	0.98 µM (≈ 0.602 µg/mL)	3.9 µM and 3.90 µM	7.81 µM (≈ 4.8 µg/mL)	250 µM (≈ 154 µg/mL)	250 µM (≈ 154 µg/mL)	0.98 µM (≈ 0.602 µg/mL)	0.98 µM (≈ 0.602 µg/mL)	7.81 µM (≈ 4.8 µg/mL)	15.62 µM (≈ 9.6 µg/mL)	–	–	–	–	–	–	–	–	–
CC1(C)S[C@@H]2[C@H](NC(=O)Cc3ccccc3)C(=O)N2[C@H]1C(=O)O [Pen, benzylpenicillin, reference compound]	–	–	–	–	–	–	–	–	–	–	–	–	0.24 µM (≈ 0.0803 µg/mL)	0.24 µM (≈ 0.0803 µg/mL)	125 µM (≈ 41.8 µg/mL)	125 µM (≈ 41.8 µg/mL)	31.2 µM (≈ 10.4 µg/mL)	125 µM (≈ 41.8 µg/mL)	7.81 µM (≈ 2.61 µg/mL)	15.6 µM (≈ 5.22 µg/mL)	MIC [5, 22]: 125 µM (≈ 41.8 µg/mL); MIC [5, 23]: 125 µM (≈ 41.8 µg/mL); MIC [6, 24]: > 500 µM; MIC [6, 25]: > 500 µM
CC1(C)S[C@@H]2[C@H](NC(=O)COc3ccccc3)C(=O)N2[C@H]1C(=O)O [Phen, phenoxymethylpenicillin, reference compound]	–	–	–	–	–	–	–	–	–	–	–	–	0.24 µM (≈ 0.0841 µg/mL)	0.24 µM (≈ 0.0841 µg/mL)	250 µM (≈ 87.6 µg/mL)	500 µM (≈ 175 µg/mL)	62.5 µM (≈ 21.9 µg/mL)	250 µM (≈ 87.6 µg/mL)	7.81 µM (≈ 2.74 µg/mL)	7.81 µM (≈ 2.74 µg/mL)	MIC [5, 22]: > 500 µM; MIC [5, 23]: > 500 µM; MIC [6, 24]: > 500 µM; MIC [6, 25]: > 500 µM
CO[C@H]1/C=C/O[C@@]2(C)Oc3c(C)c(O)c4c(O)c(c(/C=N/N5CCN(C)CC5)c(O)c4c3C2=O)NC(=O)/C(C)=C\C=C\[C@H](C)[C@H](O)[C@@H](C)[C@@H](O)[C@@H](C)[C@H](OC(C)=O)[C@@H]1C [RFM, rifampicin, reference compound]	–	–	–	–	–	–	–	–	–	–	–	–	–	–	–	–	–	–	–	–	M. smeg. ATCC 607 MIC [7]: 1.56 µg/mL; MIC ([7]; Mycolicibacterium smegmatis, read-out: M. smeg. ATCC 607 MIC): 0.78 to 1.56 µg/mL (≈ 0.948 to 1.9 µM)
C[C@@H](c1ncncc1F)[C@](O)(Cn1cncn1)c1ccc(F)cc1F [VOR, voriconazole, reference compound]	–	–	–	–	–	–	–	–	–	–	–	–	–	–	–	–	–	–	–	–	MIC ([8]; ATCC44859, 24 h): 0.002 µM (≈ 0.000699 µg/mL); MIC ([8]; ATCC44859, 48 h): 0.008 µM (≈ 0.00279 µg/mL); MIC ([9]; Candida tropicalis, 156, 24 h): 62.5 µM (≈ 21.8 µg/mL); MIC ([9]; Candida tropicalis, 156, 48 h): 250 µM (≈ 87.3 µg/mL); MIC ([10]; E28, 24 h): 0.49 µM (≈ 0.171 µg/mL); MIC ([10]; E28, 48 h): 1.95 µM (≈ 0.681 µg/mL); MIC ([11]; 24 h): 0.24 µM (≈ 0.0838 µg/mL); MIC ([11]; 48 h): 250 µM (≈ 87.3 µg/mL); MIC ([12]; Trichosporon asahii, 1188, 24 h): 0.98 µM (≈ 0.342 µg/mL); MIC ([12]; Trichosporon asahii, 1188, 48 h): 7.81 µM (≈ 2.73 µg/mL); MIC ([13]; Aspergillus fumigatus, 231, 24 h): 0.49 µM (≈ 0.171 µg/mL); MIC ([13]; Aspergillus fumigatus, 231, 48 h): 1.95 µM (≈ 0.681 µg/mL); MIC ([14]; Lichtheimia corymbifera, 272, 24 h): 125 µM (≈ 43.7 µg/mL); MIC ([14]; Lichtheimia corymbifera, 272, 48 h): 250 µM (≈ 87.3 µg/mL); MIC ([15]; Trichophyton interdigitale, 445, 72 h): 0.061 µM (≈ 0.0213 µg/mL); MIC ([15]; Trichophyton interdigitale, 445, 120 h): 0.12 µM (≈ 0.0419 µg/mL)
bacitracin [reference compound]	15.62 µM	31.25 µM	15.62 µM	31.25 µM	15.62 µM	31.25 µM	31.25 µM	31.25 µM	> 500 µM	> 500 µM	> 500 µM	> 500 µM	–	–	–	–	–	–	–	–	–
